{"source": "patent US20050272662A1", "about": "“Self-assembled peptide-amphiphiles & self-assembled peptide nanofiber networks presenting multiple signals” (priority 2002, published 2005)", "settings": "concentration about 10 mg/mL", "note": "Residues, ends and D or L forms follow the SMILES beside them. *: point of attachment. Palmitoyl = CCCCCCCCCCCCCCCC(=O)*", "experimental": "The two molecules can be dissolved in pH-adjusted water at a concentration of about 2-30 mg/ml, and preferably about 10 mg/mL.\nThe molecules were then dissolved in water at a concentration of 10 mg/mL, adjusting the pH to improve solubility. […] In the case of molecule 1, the pH was raised to about pH 8 with 2M and 100 mM KOH, then back-titrated to pH 7."}
{"smiles": "CCCCCCCCCCCCCCCC(=O)N[C@@H](C)C(=O)N[C@@H](C)C(=O)N[C@@H](C)C(=O)N[C@@H](C)C(=O)NCC(=O)NCC(=O)NCC(=O)N[C@@H](CCCCN)C(=O)N[C@@H](Cc1ccc(O)cc1)C(=O)N[C@H](C(=O)NCC(=O)N[C@@H](CO)C(=O)N[C@@H](CCCNC(=N)N)C(N)=O)[C@@H](C)CC", "note": "[Molecule 2] (Palmitoyl-AAAAGGGKYIGSR-NH2)", "values": [{"measurement": "appearance of solution in pH-adjusted water", "result": "translucent"}]}
